Format in all cases: in vivo
For series [1], the system named is Halyomorpha halys. As to the kind of experiment: Brown marmorated stink bug spray test on soybean seeds in cups. The conditions noted are these: 300 ppm, adults on soybean seeds, 5 days after treatment. How it is done:
Halyomorpha halys (Brown Marmorated Stink Bug)
For evaluating control of Halyomorpha halys the active compound is dissolved at the desired concentration in a mixture of 1:1 (vol:vol) distilled water:acetone with 0.005% (v/v) of Tween 20 added as surfactant. Soybean seeds are placed in a small petri dish inside a plastic cup 10 adults (5 females and 5 males) are introduced into each cup. Using an airbrush sprayer, 1 mL solution was sprayed directly inside the cups with bean pods. After drying, a water source (wet cotton in a small petri dish) is placed in each cup, and the cups closed with ventilated cover. All cups held under constant temperature of 20° C., 16L:8D photoperiod. Live insects are counted at 5 days after treatment.

The test system of series [2] is Euschistus heros. As to the kind of experiment: Brown stink bug test on sprayed soybean seedlings of Intacta and BMX-Potencia. The conditions noted are these: 100 ppm, 6 days after application; for efficacy on soybean with Bacillus thuringiensis toxin trait (INTACTA) versus soybean without the trait (BMX-POTENCIA): sprayed seedlings; for mortality (corrected according to Abbott): sprayed soybean seedlings of Intacta and BMX-Potencia, adults. How it is done: Brown Stink Bug (Euschistus heros)
The active compound is dissolved at the desired concentration in a mixture of 1:1 (vol:vol) distilled water:acetone. Soybean seedlings of Intacta and BMX-Potencia with one pair of true leaves were sprayed 10 with 2 ml solution using an airbrush. After dry, the plants in small pots were placed inside a transparent plastic cage and infested with 10 adults adult stage individuals. Treated cups were kept at about 25° C. Percent mortality was recorded after 6 days after application. […] Entomal., 18 (1925) 265-267.

Series [3] deals with Nezara viridula. Nature of the series: Green soldier stink bug soil drench test on lima bean plants. As to conditions: 250 g ai/ha, 2nd instar nymphs infested 3 days after treatment, read 4 days after infestation. The method, then: Green Soldier Stink Bug (Nezara viridula)
Lima Bean (Phaseolus lunatus, ‘Henderson Bush,’ Lot #—VR06650) plants were transplanted at the two true-leaf stage into 25.8 cm2 pots filled with sifted (No. 10 sieve). Pots were held in the greenhouse and watered daily until treatment. Three days after transplant, the compounds were dissolved in acetone and then diluted with water for a final concentration of 50% acetone. Treatments were applied as a drench in 1 ml solution per plant. Plants were held in an environmental chamber (25±2° C., 24 L) and watered as needed for the duration of the test.
Three days after treatment, plants were infested with five 2nd instar nymphs. Plants were 15 covered with organza fabric bags to prevent escape. Four days after infestation, the number of live nymphs on each plant was recorded, and means were calculated for each treatment. The percent control was calculated as the percent mortality relative to the solvent blank.

Molecules are shown by their SMILES.

Take `Cc1cccc(-c2c([O-])[n+]3ccccc3n(CCC#N)c2=O)c1` [Compound C-6]: the “mortality in comparison with untreated controls” value in series [1] is “at least 75%”.

As to `N#CCCn1c(=O)c(-c2cc(C3CC3)cc(C(F)(F)F)c2)c([O-])[n+]2ccccc12` [Compound C-8], in series [2], the “efficacy on soybean with Bacillus thuringiensis toxin trait (INTACTA) versus soybean without the trait (BMX-POTENCIA)” value is given as “higher efficacy” and the “mortality (corrected according to Abbott)” value is listed as 68%. Moreover, in series [3], the “mortality in comparison with untreated controls (percent control relative to the solvent blank)” value is on record as “at least 75%”.

`N#CCCn1c(=O)c(-c2ccc(F)cc2)c([O-])[n+]2ccccc12` [Compound C-9]: in series [2], the “efficacy on soybean with Bacillus thuringiensis toxin trait (INTACTA) versus soybean without the trait (BMX-POTENCIA)” value is reported as “higher efficacy” and the “mortality (corrected according to Abbott)” value worked out at 70%.

For the origin of these results see US20200397001A1, “CONTROL OF PESTS OF SOYBEAN PLANTS WITH MESOIONIC COMPOUNDS” (BASF SE, priority 2018, published 2020).
